IC50 and IC50 values data for 15 compounds are collected here from publication PMC10340682, “Preparation and Identification of Peptides with α-Glucosidase Inhibitory Activity from Shiitake Mushroom (Lentinus edodes) Protein” (Foods, 2023).

Where two headings read alike, the source gives them in different places. Residues, ends and D or L forms follow the SMILES beside them.

The target of experiment [1] is T1, α-glucosidase (Saccharomyces cerevisiae, UniProt P53341). The experiment is described as follows: α-glucosidase inhibition activity (PNPG). In kind it is biochemical. Particulars: synthetic peptides; enzyme 0.2 U/mL, preincubation 25 °C 10 min, PNPG 5 mmol/L, 30 min 37 °C, 405 nm; mean ± SD, three repetitions. The text has this: Shiitake mushrooms were acquired from a farmers’ market. Neutral protease (50 U/mg), pepsin (1:30,000), alkaline protease (200 U/mg), acid protease (50 U/mg), papain (800 U/mg), and flavor protease (20 U/mg) were purchased from Qiyi Biotechnology (Shanghai, China) Co., Ltd. α-glucosidase (10 U/mg) and 4-nitrophenyl a-D-glucopyranoside (PNPG, 99% purity) were purchased from Sigma-Aldrich (St. Louis, MO, USA). Acetonitrile (HPLC grade, 99.9% purity) was purchased from Fisher Chemical (Hampton, NH, USA). Formic acid (LC-MS grade, 99% purity) was purchased from Thermo Scientific (Waltham, MA, USA). Other reagents were of analytical grade and commercially available.
T1 sequence (P53341 whole entry): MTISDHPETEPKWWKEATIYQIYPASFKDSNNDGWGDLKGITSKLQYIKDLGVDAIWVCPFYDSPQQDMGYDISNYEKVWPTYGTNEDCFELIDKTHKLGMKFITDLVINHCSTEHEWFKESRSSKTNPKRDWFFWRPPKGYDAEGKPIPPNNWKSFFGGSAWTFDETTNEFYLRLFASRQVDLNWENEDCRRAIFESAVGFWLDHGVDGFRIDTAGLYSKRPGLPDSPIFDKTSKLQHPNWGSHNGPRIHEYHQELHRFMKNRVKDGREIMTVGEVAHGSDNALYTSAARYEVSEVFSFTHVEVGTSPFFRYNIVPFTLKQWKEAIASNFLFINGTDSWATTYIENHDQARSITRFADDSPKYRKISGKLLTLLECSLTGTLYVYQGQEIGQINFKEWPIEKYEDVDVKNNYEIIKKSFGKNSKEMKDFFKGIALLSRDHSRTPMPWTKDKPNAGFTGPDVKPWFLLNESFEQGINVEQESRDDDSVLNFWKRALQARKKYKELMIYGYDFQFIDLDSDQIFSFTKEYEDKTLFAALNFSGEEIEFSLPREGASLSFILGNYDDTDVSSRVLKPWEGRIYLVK
A quantity of 100 μL α-glucosidase solution (0.2 U/mL) was premixed with 50 μL sample solution in the enzyme label plate, and incubated at 25 °C for 10 min; 50 μL of PNPG (5 mmol/L) solution was added to start reactions, and incubation was continued for another 30 min at 37 °C. The reaction was terminated with 50 μL 0.67 mol/L Na2CO3 solution. The absorbance value was measured at 405 nm using an AMR-100 automatic enzyme label analyzer. The results were calculated using the following formula:Inhibitory rate (%) = ((Acontrol − Asample)/Acontrol) × 100(1)
All experiments had three repetitions. Data are expressed as mean ± standard deviation. Statistical significance (Duncan’s test, p < 0.05) was analyzed by DPS. Response surface data were analyzed using Design-ExpertV8.0.6 software.

Experiment [2] has as its target T1, α-glucosidase. The arrangement: method as in 7 sources, ref [4]; doi:10.1016/j.foodchem.2011.05.067; 4. Yu Z. Yin Y. Zhao W. Yu Y. Liu B. Liu J. Chen F. Novel peptides derived from egg white protein inhibiting alpha-glucosidase Food Chem. 2011 129 1376 1382 10.1016/j.foodchem.2011.05.067 ||| ref [25] = [25]; PMID 22953959; doi:10.1016/j.foodchem.2012.06.088; 25. Yu Z. Yin Y. Zhao W. Liu J. Chen F. Anti-diabetic activity peptides from albumin against alpha-glucosidase and alpha-amylase Food Chem. 2012 135 2078 2085 10.1016/j.foodchem.2012.06.088 22953959 ||| ref [10] = [10]; doi:10.1016/j.lwt.2021.113062; 10. Zhao Q. Wei G. Li K. Duan S. Ye R. Huang A. Identification and molecular docking of novel α-glucosidase inhibitory peptides from hydrolysates of Binglangjiang buffalo casein LWT 2022 156 113062 10 ||| ref [27] = [27]; PMID 36240562; doi:10.1016/j.foodchem.2022.134481; 27. Wang X. Deng Y. Xie P. Liu L. Zhang C. Cheng J. Zhang Y. Liu Y. Huang L. Jiang J. Novel bioactive peptides from ginkgo biloba seed protein and evaluation of their alpha-glucosidase inhibition acti ||| ref [43] = [43]; PMID 34920404; doi:10.1016/j.foodchem.2021.131717; 43. Chandrasekaran S. Gonzalez de Mejia E. Optimization, identification, and comparison of peptides from germinated chickpea ( Cicer arietinum ) protein hydrolysates using either papain or ficin and t ||| ... Particulars: cited from earlier work; for IC50 values: from germinated chickpea protein, ref [43].

[3] abbreviates: from Binglangjiang buffalo casein, ref [10], read-out: IC50 values, inhibitory activity of α-glucosidase.
Where [4] appears, read: from ginkgo biloba seed protein, ref [27], read-out: IC50 values, α-glucosidase inhibitory activity.

On to `CC(C)C[C@H](NC(=O)[C@H](CCCCN)NC(=O)[C@@H]1CCCN1C(=O)[C@H](CCC(=O)O)NC(=O)CNC(=O)[C@@H](N)CCC(=O)O)C(=O)N1CCC[C@H]1C(=O)O` [EGEPKLP] (H-EGEPKLP-OH), for which, in experiment [1], the IC50 (usually the concentration that inhibits the measured activity by half) was 499 ± 39 µM.

Consider `CC(C)C[C@H](NC(=O)[C@H](CC(=O)O)NC(=O)[C@H](CC(=O)O)NC(=O)[C@@H](N)CCCCN)C(=O)N[C@@H](CCCNC(=N)N)C(=O)N[C@@H](CO)C(=O)N1CCC[C@H]1C(=O)O` [KDDLRSP] (H-KDDLRSP-OH), for which the IC50 in experiment [1] was found to be 550 ± 37 µM.

Consider `CC(C)C[C@H](NC(=O)[C@H](CCCCN)NC(=O)CNC(=O)[C@H](Cc1ccc(O)cc1)NC(=O)[C@H](CC(=O)O)NC(=O)[C@@H](N)CC(C)C)C(=O)O` [LDYGKL] (H-LDYGKL-OH), for which the half-inhibitory concentration (IC50) in experiment [1] came to 696 ± 39 µM.

In experiment [1], `CC(C)C[C@H](NC(=O)[C@H](CCCCN)NC(=O)[C@H](CC(C)C)NC(=O)[C@H](CCC(=O)O)NC(=O)[C@@H]1CCCN1C(=O)[C@@H](N)[C@@H](C)O)C(=O)O` [TPELKL] (H-TPELKL-OH) registered an IC50 of 452 ± 36 µM.

“FALPQYLK [from Binglangjiang buffalo casein]”: the half-inhibitory concentration (IC50) in experiment [2] (setting [3]) was 543 µM.

With GLAR [from germinated chickpea protein], in experiment [2], the IC50 values is 8700 µg/mL.

As to KLPGF, in experiment [2] (from albumin, ref [25], read-out: IC50 of α-glucosidase inhibitory peptide), the IC50 was 59.5 ± 5.7 µM.

With “LSMSFPPF [identified from ginkgo biloba seed protein]”, in experiment [2] (setting [4]), the IC50 is 454 ± 32.5 µM.

Regarding “MPGPPSD [identified from ginkgo biloba seed protein]”, the half-maximal inhibitory concentration (IC50) in experiment [2] (setting [4]) was 944 ± 73.1 µM.

Turning to “RNAVPITPTLNR [from Binglangjiang buffalo casein]”, the IC50 in experiment [2] (setting [3]) is 504 µM.

Regarding “RVPSLM [identified from egg white protein]”, the IC50 in experiment [2] (identified from egg white protein, ref [4], read-out: IC50 value, α-glucosidase inhibitory activity) was 23.1 µM.

For “SPGAGKG [from germinated chickpea protein]”, the IC50 values in experiment [2] was 1800 µg/mL.

Regarding “TKVIPYVRYL [from Binglangjiang buffalo casein]”, in experiment [2] (setting [3]), the IC50 was 498 µM.

Take “VPKIPPP [identified from ginkgo biloba seed protein]”: the IC50 in experiment [2] (setting [4]) is 1450 ± 67 µM.

For the compound “YLGYLEQLLR [from Binglangjiang buffalo casein]”, the half-inhibitory concentration (IC50) in experiment [2] (setting [3]) is 470 µM.
